Holding throughout (type): cell-based
The test system of data set [1] is MCF-7 human breast cancer cell lines. Kind of data set: MTT proliferation (cytotoxicity) assay on MCF-7 cells. The conditions noted are these: for cytotoxicity against MCF-7 (in words): 10-100 µM, 24-72 h; for cytotoxicity against MCF-7 (in words) / IC50: MTT; for SI (selectivity index) MCF-7: IC50 normal cells (MCF-10A) divided by IC50 MCF-7; for IC50: Homo sapiens, MCF7. The text has this: (§1) MCF-7 and MDA-MB-231 human breast cancer cell lines, as well as MCF-10A human normal breast cell lines, were used in this study. These cells were acquired from the American Type Culture Collection (Manassas, VA, USA). MCF-7 and MDAMB-231 cells were regularly cultured in Dulbecco’s Modified Eagle’s Medium (DMEM; Gibco, Waltham, MA, USA), and supplemented with 10% (v/v) foetal bovine serum (FBS; Gibco, Waltham, MA, USA) and 100 U/mL penicillin-streptomycin (PenStrep; Gibco, Waltham, MA, USA). MCF-10A cells were routinely cultured in DMEM/F12 (Gibco, Waltham, MA, USA) medium supplemented with 5% horse serum (Sigma-Aldrich, Burlington, MA, USA), 10 μg/mL of insulin (Sigma-Aldrich, Burlington, MA, USA), 20 ng/mL of human epidermal growth factor (hEGF; ThermoFisher, Waltham, MA, USA), 0.5 μg/mL of hydrocortisone (Sigma-Aldrich, Burlington, MA, USA) and 1 U/mL PenStrep. All cell lines were maintained in a humidified atmosphere with 5% CO2 at 37 °C.
(§2) The effects of the N-(2-cinnamylphenyl)amide products (i.e., isolated pure isomers) on MCF-7, MDA-MB-231 and MCF-10A were determined using a 3-(4,5-dimethylthiazol-2-yl)-2,5-diphenyltetrazolium bromide (MTT) proliferation assay. The cell lines were seeded in 96-well plates at a density of 1 × 10^4 cells/well and allowed to grow overnight for cell attachment. The cell lines were then treated with fresh assay medium, supplemented with increasing concentrations of tested compounds (10–100 µM) and incubated for 24–72 h at 37 °C. For this assay, the blank and negative controls used were the culture medium alone (without cells) and cells with culture medium only (untreated cells), respectively. […] At each incubation period (24, 48 and 72 h), 10 μL of MTT solution (5 mg/mL) was added to each well, and cells were further incubated for 4 h at 37 °C in 5% CO2. The solution mixture in each well was replaced with 100 μL of dimethyl sulfoxide (DMSO) to solubilise the MTT crystalline products. The optical density (O.D.) of each well was measured using a microplate reader (PowerWave-XS; Bio-Tek Instruments, Winooski, Vermont, USA) at 570 nm. The experiments were conducted in triplicate for each cell line.
(§3) The selectivity index (SI) was used to indicate the cytotoxic selectivity of the samples against cancer cells and normal cells. It was calculated from the IC50 of the samples in normal cells versus cancer cells. […] All data were analysed and presented as means standard deviation (±SD). Comparisons between each concentration of 18 samples were evaluated using Student’s t-test, where p < 0.05, p < 0.01 or p < 0.001 were considered as statistically significant relative to the untreated control cells.

Data set [2] has as its system MCF-10A human normal breast cell lines. As to the kind of experiment: MTT proliferation (cytotoxicity) assay on MCF-10A normal cells.
Excerpt: as §1, §2, §3

The subject of data set [3] is MDA-MB-231 human breast cancer cell lines. Kind of data set: MTT proliferation (cytotoxicity) assay on MDA-MB-231 cells. The conditions noted are these: for cytotoxicity against MDA-MB-231 (in words): 10-100 µM, 24-72 h; for cytotoxicity against MDA-MB-231 (in words) / IC50: MTT; for SI (selectivity index) MDA-MB-231: IC50 normal cells (MCF-10A) divided by IC50 MDA-MB-231; for IC50: Homo sapiens, MDA-MB-231.
Excerpt: as §1, §2, §3

Entries after “also recorded” stand apart in the source; their conditions may differ.

By IC50 is commonly meant the midpoint of a concentration-inhibition curve. A low value points to inhibition by little substance. With `CCCCC(=O)Nc1ccccc1/C=C/Cc1ccc(OC)cc1` [Compound 6d, (E)-N-(2-(3-(4-Methoxyphenyl)prop-1-en-1-yl)phenyl)pentanamide], in data set [1], the “cytotoxicity against MCF-7 (in words)” value is “low growth inhibition”. For the same molecule, the “SI (selectivity index) MCF-7” value in data set [1] (24 h) is on record as more than 1.06; in data set [1] (48 h), 1.01; in data set [1] (72 h), 1.41. Moreover, the IC50 is 94 ± 1.26 µM in data set [1] (24 h incubation); 93.3 ± 2.15 µM in data set [1] (48 h incubation); 65.8 ± 7.33 µM in data set [1] (72 h incubation); more than 100 µM in data set [2] (24 h incubation); 94.4 ± 9.71 µM in data set [2] (48 h incubation); 92.9 ± 8.71 µM in data set [2] (72 h incubation). For the same molecule, the IC50 in data set [3] (24 h incubation), in data set [3] (48 h incubation) and in data set [3] (72 h incubation) was more than 100 µM in each case. The “cytotoxicity against MDA-MB-231 (in words)” value in data set [3] is “inactive; also recorded: low growth inhibition”. Also, the results for the “SI (selectivity index) MDA-MB-231” value in data set [3] (48 h) and in data set [3] (72 h) were less than 0.94 and less than 0.93, respectively.
Regarding `COc1ccc(C/C=C/c2ccccc2NC(=O)c2ccccc2C)cc1` [Compound 6i, (E)-N-(2-(3-(4-Methoxyphenyl)prop-1-en-1-yl)phenyl)-2-methylbenzamide], the “SI (selectivity index) MCF-7” value in data set [1] (72 h) is given as more than 1.09. Besides, the IC50 in data set [1] (24 h incubation) is more than 100 µM; in data set [1] (48 h incubation) it was more than 100 µM; in data set [1] (72 h incubation), 91.8 ± 7.95 µM; in data set [2] (24 h incubation), more than 100 µM; in data set [2] (48 h incubation), more than 100 µM; in data set [2] (72 h incubation), more than 100 µM. The IC50 in data set [3] (24 h incubation) was more than 100 µM; in data set [3] (48 h incubation), more than 100 µM; in data set [3] (72 h incubation), 73.8 ± 6.92 µM. In data set [3] (72 h), the “SI (selectivity index) MDA-MB-231” value is more than 1.36.
With `COc1ccc(/C=C/Cc2ccccc2NC(=O)c2ccccc2C)cc1` [Compound 7i, (E)-N-(2-(3-(4-Methoxyphenyl)allyl)phenyl)-2-methylbenzamide], the “cytotoxicity against MCF-7 (in words)” value in data set [1] was “low growth inhibition”. In addition, the “cytotoxicity against MDA-MB-231 (in words)” value in data set [3] is on record as “low growth inhibition”.
For the molecule `CCCCC(=O)Nc1ccccc1C/C=C/c1ccc(OC)cc1` [Compound 7d, (E)-N-(2-(3-(4-Methoxyphenyl)allyl)phenyl)pentanamide], the “cytotoxicity against MCF-7 (in words)” value in data set [1] is reported as “low growth inhibition”. Further, the figures for the “SI (selectivity index) MCF-7” value in data set [1] (24 h), in data set [1] (48 h) and in data set [1] (72 h) were more than 1.70, 1.54 and 1.49, respectively. Further, the IC50 was 58.9 ± 1.81 µM in data set [1] (24 h incubation); 48.7 ± 3.46 µM in data set [1] (48 h incubation); 47.9 ± 2.96 µM in data set [1] (72 h incubation); more than 100 µM in data set [2] (24 h incubation); 75 ± 8.58 µM in data set [2] (48 h incubation); 71.2 ± 9.25 µM in data set [2] (72 h incubation). The IC50 in data set [3] (24 h incubation), in data set [3] (48 h incubation) and in data set [3] (72 h incubation) was more than 100 µM in each case. Moreover, the SI value in data set [1] (abstract, time not stated, considered general toxicity) is reported as less than 2. For the same molecule, the “cytotoxicity against MDA-MB-231 (in words)” value in data set [3] is “inactive; also recorded: low growth inhibition”. The “SI (selectivity index) MDA-MB-231” value in data set [3] (48 h) is on record as less than 0.75; in data set [3] (72 h), less than 0.71.
Take `CCCCCC(=O)Nc1ccccc1C/C=C/c1ccc(OC)cc1` [Compound 7e, (E)-N-(2-(3-(4-Methoxyphenyl)allyl)phenyl)hexanamide]: the “cytotoxicity against MCF-7 (in words)” value in data set [1] is “low growth inhibition”. In addition, the “SI (selectivity index) MCF-7” value is less than 0.70 in data set [1] (48 h) and 0.78 in data set [1] (72 h). The IC50 in data set [1] (24 h incubation) was more than 100 µM; in data set [1] (48 h incubation) it was more than 100 µM; in data set [1] (72 h incubation), 88.5 ± 2.37 µM; in data set [2] (24 h incubation), more than 100 µM; in data set [2] (48 h incubation), 70.3 ± 1.88 µM; in data set [2] (72 h incubation), 69.18 ± 0.01 µM. The IC50 in data set [3] (24 h incubation), in data set [3] (48 h incubation) and in data set [3] (72 h incubation) was more than 100 µM throughout. Also, the “cytotoxicity against MDA-MB-231 (in words)” value in data set [3] was “inactive; also recorded: low growth inhibition”. Besides, the “SI (selectivity index) MDA-MB-231” value in data set [3] (48 h) was less than 0.70; in data set [3] (72 h) it was less than 0.69.
In the case of `CCCCCC(=O)Nc1ccccc1/C=C/Cc1ccc(OC)cc1` [Compound 6e, (E)-N-(2-(3-(4-Methoxyphenyl)prop-1-en-1-yl)phenyl)hexanamide], the “cytotoxicity against MCF-7 (in words)” value in data set [1] is reported as “low growth inhibition”. Further, the “SI (selectivity index) MCF-7” value is less than 0.81 in data set [1] (24 h), less than 0.90 in data set [1] (48 h) and less than 0.99 in data set [1] (72 h). Moreover, the IC50 in data set [1] (24 h incubation) is more than 100 µM; in data set [1] (48 h incubation), more than 100 µM; in data set [1] (72 h incubation), more than 100 µM; in data set [2] (24 h incubation), 80.9 ± 7.58 µM; in data set [2] (48 h incubation), 90.1 ± 8.8 µM; in data set [2] (72 h incubation), 98.5 ± 2.6 µM. For the same molecule, the IC50 in data set [3] (24 h incubation), in data set [3] (48 h incubation) and in data set [3] (72 h incubation) was more than 100 µM throughout. Further, in data set [3], the “cytotoxicity against MDA-MB-231 (in words)” value is listed as “low growth inhibition”. In addition, the “SI (selectivity index) MDA-MB-231” value in data set [3] (24 h) was less than 0.81; in data set [3] (48 h), less than 0.90; in data set [3] (72 h) it was less than 0.99.

(Values after publication PMC9457622, “Synthesis of Bio-Inspired 1,3-Diarylpropene Derivatives via Heck Cross-Coupling and Cytotoxic Evaluation on Breast Cancer Cells” (Molecules, 2022).)
